Earlier results on one compound are cited in patent publication US8455478B2, “Rapid onset liquid midazolam composition for buccal administration” (Special Products, Ltd., priority 2010, dated 2013).

The conditions of this series: pH 8, aqueous solution.

SMILES strings stand for the structures.

On to `Cc1ncc2n1-c1ccc(Cl)cc1C(c1ccccc1F)=NC2` [midazolam, 8-chloro-6-(2-fluorophenyl)-1-methyl-4H-imidazo[1,5-a][1,4]], for which the solubility of midazolam was 55 µg/mL.
